According to patent US20070060605A1, “Compositions and methods for inhibiting platelet activation and thrombosis” (priority 2001, published 2007):
Read-outs that look alike come from different tables or passages of the source.

What was measured:
[1] = system: platelets; test: Agonist-induced platelet granule secretion / activation (P-selectin expression by flow cytometry; ADP/ATP release); format: cell-based, human
Protocol: In order to monitor ATP release, a cocktail of 100 μM SFLLR (synthesized using solid phase Fmoc chemistry on an Applied Biosystems model 430A peptide synthesizer) and 3 mg/ml of luciferin/luciferase (Sigma, St. Louis, Mo.) in a volume of 10 μl is added to 20 μl of PRP. Samples are immediately analyzed for luminescence. Activated platelets supply the ATP necessary for luminescence of the luciferin/luciferase assay. Assays can be performed at high throughput through use of a microtiter plate system, e.g., 384-well plates and a Multidrop 384 (Thermo Labsystems, Helsinki), read with a high density imaging system, e.g., the Tundra system (Imaging Research, St. Catherine's, Ontario).
In order to assay platelet activation by cell surface marker expression, fresh PRP is isolated from donors who have not ingested aspirin for two weeks prior to donation. PRP (40 μl) is incubated with known or suspected inhibitor in DMSO or DMSO alone for 15 min. The sample is then incubated with the indicated agonist (e.g., SFLLR) for 10 min. Following incubation of the sample with the indicated agonist, 10 μl of reaction mixture is transferred to 5 μl of phycoerythrin (PE)-conjugated AC 1.2 anti-P-selectin antibody (for assessment of P-selectin surface expression) or fluorescein isothiocyanate (FITC)-conjugated PAC-1 antibody (for assessment of GPIIbIIIa activation). PBS (500 μl) is added to the sample after a 20 min incubation and the platelets are analyzed immediately by flow cytometry. Flow cytometry can be performed using, for example, a Becton-Dickinson FACSCalibur flow cytometer or its equivalent. Fluorescent channels are set at logarithmic gain. Ten thousand particles are acquired for each sample. A 530/30 band pass filter is used for FL-1 fluorescence. A 585/42 band pass filter is used for FL-2 fluorescence. FITC is measured in the FL-1 channel and PE is measured in the FL-2 channel. Data are analyzed using, for example, CellQuest software on a Macintosh PowerPC, or their equivalents.
Compounds were tested for the ability to inhibit agonist-induced ADP/ATP release from platelet dense granules using a luciferin-luciferase reporter system. In this assay, compounds were incubated with platelet-rich plasma (PRP) for 30 min. A cocktail of the platelet agonist and luciferin-luciferase was then added to the wells. Plates were immediately analyzed using a Tundra high density luminescence imager. […] As a control, compounds were also screened in a platelet-free assay for the ability to inhibit luciferin-luciferase upon exposure to ATP.
Each of the compounds was tested for inhibition of platelet activation in response to the agonists SFLLR (a thrombin mimic), U46619 (a thromboxane A2 mimic), ADP and the phorbol ester PMA.
Compounds were also tested by flow cytometry for the inhibition of SFLLR-induced GPIIbIIIa activation and P-selectin expression. In these experiments, freshly obtained PRP was prepared from healthy volunteers who had not ingested aspirin for two weeks prior to donation. Forty μl of PRP was incubated with inhibitor in DMSO or DMSO alone for 15 min. The sample was then incubated with the indicated agonist for 10 min. Following incubation of the sample with the indicated agonist, 10 μl of reaction mixture was transferred to 5 μl of PE-conjugated AC1.2 anti-P-selectin antibody (for assessment of P-selectin surface expression) or FITC-conjugated PAC-1 antibody (for assessment of GPIIbIIIa activation). PBS (500 μl) was added to the sample after a 20 min incubation and the platelets were analyzed immediately by flow cytometry. Flow cytometry was performed using a Becton-Dickinson FACSCalibur flow cytometer. Fluorescent channels were set at logarithmic gain. Ten thousand particles were acquired for each sample. A 530/30 band pass filter was used for FL-1 fluorescence. A 585/42 band pass filter was used for FL-2 fluorescence. FITC was measured in the FL-1 channel and PE was measured in the FL-2 channel.

[2] = system: mouse platelets
[3] = system: platelet accumulation into thrombus; format: in vivo; conditions: bolus 6 mg/kg/5 min then continuous infusion 3 mg/kg/90 min; P<0.01
Description: A preferred animal model involves intravital microscopy of laser-induced thrombi. The method is described by Rosen et al., 2001, Am J Pathol 158, 1613-1622, which is incorporated herein by reference. Minor variations of that method were employed as described below.
Experimental mice are pre-anesthetized and surgically prepared. A tracheal tube is placed to facilitate breathing and the jugular vein is canulated to allow for maintenance of anesthetic and introduction of compound. The cremaster muscle is then exteriorized. The muscle is affixed over a glass slide, allowing illumination from below. A steady drip of a sodium-bicarbonate buffered salt solution is maintained throughout the experiment to keep the exposed muscle moist. Blood flow in the muscle is visualized using a 40× water immersion lens and epi-illuminated with an appropriately filtered light source. Alexa 488-labeled anti-mouse CD41 antibody is injected through the jugular canulus to label platelets in vivo.
Thrombosis is initiated by damaging the vessel wall (of a 30 μm vessel) with a laser pulse from a MicroPoint LASER attached to the microscope. A LASER pulse is delivered, causing damage in an area smaller than 1 μm. The recruitment of platelets to the thrombus is then monitored by the accumulation of (activated) Alexa 488-labeled platelets at the ablation site using fluorescence microscopy, and the process is recorded digitally. The method thus permits in vivo analysis of platelet activation as measured by platelet aggregation and thrombosis.
The degree of embolization in an untreated mouse can be quantified using software for image analysis, e.g., BioQuant True Color Windows (Biometrics, Nashville, Tenn.), as described in Rosen et al., 2001, supra. The software package permits the determination of the “integrated optical density” or IOD of the thrombus.
Using quantitative intravital fluorescence videomicroscopy with high temporal resolution (111 images/second), the effect of PDE3 inhibition on the platelet recruitment into thrombi was directly observed over time. Platelets were fluorescently labeled by infusing rat-anti-mouse CD41 and Alexa 488-anti-rat IgG through a cannulated jugular vein. The cremaster microvasculature was exposed and mapped and suitable arteriole segments were selected for laser-induced injury. A series of control injuries were generated prior to infusion of the inhibitory compound. The power and the number of laser pulses required to generate each thrombus was recorded. Platelet accumulation to the thrombi following laser ablation was recorded using digital videomicroscopy. The thrombus total fluorescence in each frame of the videos was analyzed using Slidebook software for digital videomicroscopy. The pyridazinone compound was then infused. Following a 15 minute incubation, a series of experimental injuries were generated 250 μm proximal, with relationship to blood flow, of the first injury and the resultant thrombi were recorded. The power and the number of pulses required to induce the control thrombus was used to induce the experimental thrombus. The control and experimental thrombi constituting a pair were compared for statistical analysis. The total fluorescence intensity of the thrombi before and after the infusion of pyridazinone compound was recorded.
Images from a representative experiment of the recruitment of fluorescently-labeled […] platelets into a growing thrombus over time is shown in FIG. 9A.

[4] = target: platelet cGMP-inhibited phosphodiesterase (Homo sapiens, UniProt Q14432); conditions: Omburo et al., 1995; cited from earlier work
[5] = patients suffering intermittent claudication; cited from earlier work

Chain of platelet cGMP-inhibited phosphodiesterase (Q14432 whole entry): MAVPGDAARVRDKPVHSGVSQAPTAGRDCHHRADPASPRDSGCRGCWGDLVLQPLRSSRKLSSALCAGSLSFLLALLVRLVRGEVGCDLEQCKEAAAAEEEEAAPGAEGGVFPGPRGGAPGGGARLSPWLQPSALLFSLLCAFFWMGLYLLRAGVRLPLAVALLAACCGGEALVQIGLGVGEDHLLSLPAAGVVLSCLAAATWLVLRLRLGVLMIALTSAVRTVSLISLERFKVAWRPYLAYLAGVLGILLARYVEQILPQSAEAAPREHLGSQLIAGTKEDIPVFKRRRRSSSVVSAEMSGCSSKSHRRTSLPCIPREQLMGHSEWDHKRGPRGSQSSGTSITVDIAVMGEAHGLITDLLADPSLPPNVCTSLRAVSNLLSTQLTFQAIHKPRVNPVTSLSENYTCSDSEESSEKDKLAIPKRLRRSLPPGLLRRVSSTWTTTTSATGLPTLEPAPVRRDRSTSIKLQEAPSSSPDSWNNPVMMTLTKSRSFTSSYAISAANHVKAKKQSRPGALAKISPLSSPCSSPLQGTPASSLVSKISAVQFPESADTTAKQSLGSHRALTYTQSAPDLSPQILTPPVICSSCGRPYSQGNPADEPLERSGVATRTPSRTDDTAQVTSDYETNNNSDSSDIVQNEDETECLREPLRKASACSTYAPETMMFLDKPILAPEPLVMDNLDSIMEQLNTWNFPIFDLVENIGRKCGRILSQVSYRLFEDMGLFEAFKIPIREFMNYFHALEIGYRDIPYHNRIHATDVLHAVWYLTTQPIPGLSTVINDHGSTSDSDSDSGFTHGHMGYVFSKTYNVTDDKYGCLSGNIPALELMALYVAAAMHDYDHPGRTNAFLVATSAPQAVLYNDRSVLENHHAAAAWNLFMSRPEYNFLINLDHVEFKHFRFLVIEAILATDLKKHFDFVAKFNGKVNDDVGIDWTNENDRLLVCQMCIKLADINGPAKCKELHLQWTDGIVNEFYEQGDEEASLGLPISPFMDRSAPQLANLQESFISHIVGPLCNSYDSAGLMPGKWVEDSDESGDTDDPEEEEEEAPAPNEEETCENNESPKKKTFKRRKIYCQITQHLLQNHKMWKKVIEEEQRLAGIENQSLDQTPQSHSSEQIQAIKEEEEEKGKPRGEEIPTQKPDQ

## 9-methylene-4-(alkyl)-2,3,4,9-tetrahydro-1H-cyclopenta(b)quinoline
[1]; agonist ADP, read-out: IC50s of inhibition of platelet granule secretion induced with ADP
  IC50: 650 µM
[1]; agonist PMA, read-out: IC50s of inhibition of platelet granule secretion induced with PMA
  IC50: 300 µM
[1]; agonist SFLLR, read-out: IC50s of inhibition of platelet granule secretion induced with SFLLR
  IC50: 5 µM
[1]; agonist U-46619, read-out: IC50s of inhibition of platelet granule secretion induced with U-46619
  IC50: 400 µM
[2]
  Activation of mouse platelets by several platelet agonists: inhibits
[3]
  Inhibition of thrombosis following laser-induced injury: greater than 80%

## c1cnc2c(c1)ccc1cccnc12 [[1,10]phenanthroline]
[4]
  IC50: ~2000 µM

## O=C1CCc2cc(OCCCCc3nnnn3C3CCCCC3)ccc2N1 [cilostazol]
[5]
  Increase of distance of pain free walking: up to 59%
